Results published in publication PMC10251509, “Ultrafast Fragment Screening Using Photo-Hyperpolarized (CIDNP) NMR” (Journal of the American Chemical Society, 2023).
Read-outs that look alike come from different tables or passages of the source.

Columns and labels:
PIN1 [1] = target: T1, PIN1 (Homo sapiens, UniProt Q13526); test: [15N,1H]-HSQC titration series with increasing ligand concentration, PIN1; type: binding; conditions: values with * could not be fitted to a maximum, Kd most likely higher
T1 construct: polyhistidine (N); made in house; host or cells: Escherichia coli BL21 (DE3)
T1 sequence (Q13526 whole entry): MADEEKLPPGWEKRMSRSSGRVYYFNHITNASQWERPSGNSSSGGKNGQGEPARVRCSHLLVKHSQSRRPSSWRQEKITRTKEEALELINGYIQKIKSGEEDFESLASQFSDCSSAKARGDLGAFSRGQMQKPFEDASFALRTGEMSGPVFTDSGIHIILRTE
Protocol: (B) Chemical shift perturbation titration studies of the compounds with ^15N-labeled PIN1 measured by [^15N,^1H]-HSQC experiments and shown for residues T154 and A124 in the presence of increasing ligand concentrations. […]
For the control binding experiments using ligand-induced chemical shift perturbation analysis, standard [^15N, ^1H]-HSQC spectra were measured. The detailed conditions for the 2D experiments acquired at 600 MHz ^1H NMR frequency were the 100 μM ^15N-labeled PDZ2 domain in the absence and presence of equimolar peptide in PDZ2 buffer and at a temperature of 298 K and 50 μM ^15N-labeled PIN1 in the absence and presence of 200 μM ligands in PIN1 buffer and at a temperature of 298 K, respectively. […] The data was zero–filled to 2048 points in the direct proton dimension and to 256 points in the ^15N–dimension. Processing was done with a shifted cosine window function for both dimensions. […] The spinlock times were set at 10 and 400 ms. The STD experiments were measured at 298 K with 16,384 (tmax (^1H) = 974 ms) complex points and 512 scans per increment.
Figure S7: Chemical shift perturbation-based Kd determination of individual compounds binding to PIN1. The chemical shift displacement of the 15N-1H moieties of A124 (black) and T154 (red) PIN1 (y-axis) in dependence on the compound […]
The fits to the titrations are highlighted by a line and the Kd extracted is given in mM. Compound 13 titration series ranges 0, 80, 100, 200, 300, 600, 1000, […]
concentration; compounds 3, 10, and 11 range 0, 200, 500, 1000, 2000, 3000 µM concentration and all the samples contained 80 µM of PIN1 protein and were measured in PIN1 buffer at 298K. […]

PIN1 [2] = target: T1, PIN1; test: automated flow-through photo-CIDNP 1D 1H NMR screening against PIN1; type: binding; conditions: flow cell, 50 μM compound, 20 μM PIN1, 1.5 s irradiation
Text: While several other hyperpolarization methods yield higher SNE and have been established for ligand binding detection, their implementation into a highly automated system remains challenging.[43],[44] Photo-CIDNP hyperpolarization presents the advantage of being generated in situ, at room temperature, in solution, simply by shining light on the sample. To illustrate the agility of the photo-CIDNP ligand screening approach, we designed a flow-through setup compatible with a cryoprobe (Figure 7C). The setup consists of a pump, an autosampler, a valve, and a 3D printed flow cell (Figure 7B,C), which comprises an optic fiber for light irradiation coming from a 1.6 W diode laser emitting at 450 nm from Thorlabs. […] (iv) While the flow is stopped, a photo-CIDNP ^1H 1D NMR spectrum is recorded, as described above. […]
Figure 7 Automated screening of PIN1 with Nmhare1.0 library using photo-CIDNP 1D ^1H NMR. […] The photo-CIDNP NMR experiment is then recorded with the pulse program triggering light irradiation, and subsequently performing the NMR experiment acquisition, the NMR experiment can comprehend different numbers of transients (NS) and indirect time dimension points (TD) that will increase the measurement time accordingly; finally, the sample is washed by restoring the flow in the fluidic connection. […]

Kd (PIN1 [1]; fit of CSP build-up of residue A124, read-out: Kd A124): 4.5 mM
Kd (PIN1 [1]; fit of CSP build-up of residue T154, read-out: Kd T154): 1.7 mM
photo-CIDNP signal in presence vs absence of PIN1 (PIN1 [2]): signal reduction
SMILES: Cc1cccc(-c2nc(C)c(C(=O)O)[nH]2)c1 [Compound 13, reference compound]
